Measured values taken from ChEMBL document CHEMBL5620379, “Discovery, SAR and mechanistic studies of quinazolinone-based acetamide derivatives in experimental visceral leishmaniasis” (Eur J Med Chem, 2023).
Active and inactive are the calls of the source. The calls are words filed in the database; no cut-off is given here.

Experiments:
Leishmania donovani [1] = experiment: Induction of cell cycle arrest in Leishmania donovani promastigotes assessed as accumulation of cells at G1 phase at 25 uM measured after 4 hrs by PI staining based flow cytometry analysis (reference value: 35.7%); format: functional
Leishmania donovani [2] = experiment: Antileishmanial activity against amastigote form of Leishmania donovani infected in BALB/c mouse assessed as inhibition of parasite growth in spleen at 20 mg/kg, po measured after 1 week post treatment by geimsa staining based analysis relative to control; format: functional; design: scale not given: the % may be the effect or the level left; conditions: time 1 weeks
J774 [3] = experiment: Cytotoxicity against mouse J774 cells at 12.5 uM incubated for 72 hrs by MTT assay relative to control; format: toxicity, cell-based; conditions: j774, 72 h
Leishmania donovani [4] = experiment: Induction of autophagy in Leishmania donovani promastigotes assessed as appearance of lipid droplets in cytoplasm at 25 uM measured after 24 hrs by Nile red staining based fluorescence microscopic analysis; format: functional, organism-based
[5] = Toxicity in BALB/c mouse assessed as effect on body weight at 10 to 40 mg/kg, po measured after 1 week; format: organism-based; conditions: in vivo, 168 h, dose 10-40 mg/kg, time 1 weeks
Leishmania donovani [6] = experiment: Antileishmanial activity against Leishmania donovani promastigotes measured after 48 hrs by MTT assay; format: functional, organism-based
[7] = Selectivity index, ratio of CC50 for mouse J774 macrophage to IC50 for Leishmania donovani amastigotes infected in J774 macrophage; format: toxicity; conditions: J774 macrophages, read-out: Ratio CC50/IC50
[8] = Toxicity in golden hamster infected with Leishmania donovani assessed as reduction in serum ALT level at 40 mg/kg ,po and measured after 28 days post infection (reference value: 81.58 IU/L); format: organism-based, Mesocricetus auratus; conditions: in vivo, 672 h, time 28 day
Leishmania donovani [9] = experiment: Antileishmanial activity against Leishmania donovani promastigotes at 25 uM measured after 12 hrs in presence of antipain by luciferase assay relative to control; format: functional
J774 [10] = experiment: Cytotoxicity against mouse J774 cells at 50 uM incubated for 72 hrs by MTT assay relative to control; format: toxicity, cell-based; conditions: j774, 72 h
Leishmania donovani [11] = experiment: Induction of apoptosis in Leishmania donovani promastigotes assessed as appearance of intense swelling in mitochondria at 25 uM by transmission electron microscopy analysis; format: functional, organism-based
Leishmania donovani [12] = experiment: Induction of cell cycle arrest in Leishmania donovani promastigotes assessed as accumulation of cells at G1 phase at 25 uM measured after 12 hrs by PI staining based flow cytometry analysis (reference value: 35.7%); format: functional
Leishmania donovani [13] = experiment: Induction of cell cycle arrest in Leishmania donovani promastigotes assessed as accumulation of cells at G1 phase at 25 uM measured after 8 hrs by PI staining based flow cytometry analysis (reference value: 35.7%); format: functional
[14] = Stability of the compound in stimulated intestinal fluid at 10 ug/ml at pH 6.8 measured after 120 min by HPLC analysis; format: ADME; conditions: simulated intestinal fluid, at 10 µg/mL, read-out: Stability
Leishmania donovani [15] = experiment: Induction of cell cycle arrest in Leishmania donovani promastigotes assessed as accumulation of cells at G2/M phase at 25 uM measured after 24 hrs by PI staining based flow cytometry analysis (reference value: 35.7%); format: functional
Leishmania donovani [16] = experiment: Antileishmanial activity against amastigote form of Leishmania donovani infected in BALB/c mouse assessed as inhibition of parasite growth in liver at 20 mg/kg, po measured after 1 week post treatment by geimsa staining based analysis relative to control; format: functional; design: scale not given: the % may be the effect or the level left; conditions: time 1 weeks
[17] = Toxicity in golden hamster infected with Leishmania donovani assessed as reduction in serum AST level at 40 mg/kg ,po and measured after 28 days post infection (reference value: 82.72 IU/L); format: organism-based, Mesocricetus auratus; conditions: in vivo, 672 h, time 28 day
Leishmania donovani [18] = experiment: Antileishmanial activity against Leishmania donovani amastigotes infected in J774 macrophage assessed as inhibition of parasite growth incubated for 48 hrs by luciferase assay; format: functional, organism-based; conditions: J774, 48 h
Leishmania donovani [19] = experiment: Antileishmanial activity against Leishmania donovani amastigotes infected in J774 macrophage assessed as inhibition of parasite growth at 25 uM incubated for 48 hrs by luciferase assay relative to control; format: functional; design: scale not given: the % may be the effect or the level left
Leishmania donovani [20] = experiment: Induction of cell cycle arrest in Leishmania donovani promastigotes assessed as accumulation of cells at G2/M phase at 25 uM measured after 8 hrs by PI staining based flow cytometry analysis (reference value: 35.7%); format: functional
Leishmania donovani [21] = experiment: Induction of apoptosis in Leishmania donovani promastigotes assessed as late phase apoptosis at 25 uM measured after 48 hrs by DNA laddering assay; format: functional, organism-based
J774 [22] = experiment: Cytotoxicity against mouse J774 cells at 25 uM incubated for 72 hrs by MTT assay relative to control; format: toxicity, cell-based; conditions: j774, 72 h
Leishmania donovani [23] = experiment: Induction of autophagy in Leishmania donovani promastigotes assessed as fold induction of ATG12 gene at 25 uM measured after 24 hrs by RT-PCR analysis; format: functional
J774 [24] = experiment: Downregulation of GSK-3beta phosphorylation in mouse J774 macrophage infected with Leishmania donovani at 25 uM measured after 8 to 12 hrs by immunoblot analysis; format: functional, cell-based; conditions: time 8-12 hrs
Leishmania donovani [25] = experiment: Induction of cell cycle arrest in Leishmania donovani promastigotes assessed as accumulation of cells at S phase at 25 uM measured after 24 hrs by PI staining based flow cytometry analysis (reference value: 28.6%); format: functional
Leishmania donovani [26] = experiment: Induction of autophagy in Leishmania donovani promastigotes assessed as fold induction of ATG8 gene at 25 uM measured after 24 hrs by RT-PCR analysis; format: functional
[27] = Stability of the compound in Tris-buffer at 10 ug/ml at pH 7.4 measured upto 120 min by HPLC analysis; format: physicochemical; conditions: at 10 µg/mL, read-out: Stability
Splenocyte = experiment: Immunostimulatory activity in mouse splenocyte assessed as fold increase in IL-12 synthesis at 10 to 40 mg/kg measured after 1 week by RT-PCR analysis; format: functional; conditions: dose 10-40 mg/kg; time 1 weeks
J774 [28] = experiment: Downregulation of CREB enrichment in mouse J774 macrophage infected with Leishmania donovani at 25 uM measured after 4 hrs by ChIP assay; format: functional, cell-based
Leishmania donovani [29] = experiment: Antileishmanial activity against amastigote form of Leishmania donovani infected in BALB/c mouse assessed as inhibition of parasite growth in spleen at 40 mg/kg, po measured after 1 week post treatment by geimsa staining based analysis relative to control; format: functional; design: scale not given: the % may be the effect or the level left; conditions: time 1 weeks
Leishmania donovani [30] = experiment: Antileishmanial activity against Leishmania donovani promastigotes assessed as decrease in intracellular proline level at 25 uM measured after 24 hrs (reference value: 6.27 mM); format: functional
Leishmania donovani [31] = experiment: Induction of cell cycle arrest in Leishmania donovani promastigotes assessed as accumulation of cells at S phase at 25 uM measured after 8 hrs by PI staining based flow cytometry analysis (reference value: 28.6%); format: functional
Leishmania donovani [32] = experiment: Induction of cell cycle arrest in Leishmania donovani promastigotes assessed as accumulation of cells at G1 phase at 25 uM measured after 24 hrs by PI staining based flow cytometry analysis (reference value: 35.7%); format: functional
Leishmania donovani [33] = experiment: Antileishmanial activity against Leishmania donovani infected in golden hamster assessed as inhibition of parasite growth in spleen at 40 mg/kg, po administered for 7 days and measured after 28 days by giemsa staining based analysis relative to control; format: functional; design: scale not given: the % may be the effect or the level left; conditions: time 28 day
Leishmania donovani [34] = experiment: Induction of cell cycle arrest in Leishmania donovani promastigotes assessed as accumulation of cells at S phase at 25 uM measured after 4 hrs by PI staining based flow cytometry analysis (reference value: 28.6%); format: functional

## Cn1c(-c2ccc(OCC(=O)Nc3ccccn3)cc2)nc2ccccc2c1=O
Leishmania donovani [1]
  Activity: 43.8%
Leishmania donovani [2]
  Activity: >50%
J774 [3]
  Activity: 90.78%
Leishmania donovani [4]
  Activity: Active
[5]
  Activity: Non-Toxic
Leishmania donovani [6]
  IC50: 3.39 µM
[7]
  selectivity ratio: 18.3
[8]
  Activity: 101.88 IU/L
Leishmania donovani [9]
  Activity: 40.44%
J774 [10]
  Activity: 52.15%
Leishmania donovani [11]
  Activity: Active
Leishmania donovani [12]
  Activity: 65.8%
Leishmania donovani [13]
  Activity: 55.5%
[14]
  remaining at 2 h, 10 ug/ml: 97.5%
Leishmania donovani [15]
  Activity: 13.9%
Leishmania donovani [16]
  Activity: >50%
[17]
  Activity: 123.38 IU/L
Leishmania donovani [18]
  IC50: 3.55 µM
Leishmania donovani [19]
  Activity: 82.68%
Leishmania donovani [20]
  Activity: 23.8%
Leishmania donovani [21]
  Activity: Active
J774 [22]
  Activity: 79.57%
Leishmania donovani [23]
  fold change (FC): 8.57
J774 [24]
  Activity: Active
Leishmania donovani [25]
  Activity: 13.9%
Leishmania donovani [26]
  fold change (FC): 8.92
[27]
  remaining at 2 h, 10 ug/ml: 95.5%
Splenocyte
  fold change (FC): 4.96
J774 [28]
  Activity: Active
Leishmania donovani [29]
  Activity: 86.3%
Leishmania donovani [30]
  Activity: 2.96 mM
Leishmania donovani [31]
  Activity: 20.7%
Leishmania donovani [32]
  Activity: 72.2%
Leishmania donovani [33]
  Activity: 68.4%
Leishmania donovani [34]
  Activity: 25.6%
